Measurements as given in US20100120618A1, “HERBICIDAL COMPOSITION” (SYNGENTA CROP PROTECTION, INC., priority 2007, published 2010).

Experiments:
winter wheat = assay: Post-emergence test, herbicidal activity on winter wheat; assay type: in vivo; settings: 21 days after application, average of 3 tests
Description: (§1) The test plants (Avena and winter wheat) are raised under greenhouse conditions in seed trays to a post-application stage (1.5- to 2-leaf stage). Pinoxaden is then applied to the test plants either alone or in admixture with component b) and optionally c). For both applications an additive is used which contains per litre 45% by weight Agnique ME 18 RD-F and 25% by weight Emulsogen M in Solvesso 200 ND. Application of pinoxaden is effected in the form of an emulsifiable concentrate (EC 100), and component b) and optionally c) is used in the form of WP 25. Those formulations are used to prepare spray mixtures, each of 200 litres, which contain 50 g or 100 g of pinoxaden and component b) and optionally c) and in each case 0.5% of additive (based on the volume of the spray mixtures). The tests are evaluated 21 days after application (herbicidal activity 100%=plant completely dead; herbicidal activity 0%=no phytotoxic action on the plant). The results, which are values averaged from 3 tests, are compiled in the following Table.

Avena = assay: Post-emergence test, herbicidal activity on Avena; assay type: in vivo; settings: 21 days after application, average of 3 tests
Description: as §1

[1] = 100 g/ha pinoxaden + 0.5% additive

SMILES: CCc1cc(C)cc(CC)c1-c1c(OC(=O)C(C)(C)C)n2n(c1=O)CCOCC2 [pinoxaden]
- Herbicidal activity on Winter wheat (winter wheat; 50 g/ha pinoxaden + 0.5% additive, 0%=no phytotoxic action): 8%
- Herbicidal activity on Winter wheat (winter wheat; [1]): 8%
- Herbicidal activity on Avena (Avena; 50 g/ha pinoxaden + 0.5% additive, 100%=plant completely dead): 82%
- Herbicidal activity on Avena (Avena; [1]): 87%
